Experimental data from patent US20190241573A1, “ISOQUINOLINE DERIVATIVES AS PERK INHIBITORS” (GlaxoSmithKline Intellectual Property Development Limited, priority 2016, published 2019).

Molecular target: T1, GST-PERK enzyme (Homo sapiens, UniProt Q9NZJ5)
T1 sequence (Q9NZJ5 30-1116): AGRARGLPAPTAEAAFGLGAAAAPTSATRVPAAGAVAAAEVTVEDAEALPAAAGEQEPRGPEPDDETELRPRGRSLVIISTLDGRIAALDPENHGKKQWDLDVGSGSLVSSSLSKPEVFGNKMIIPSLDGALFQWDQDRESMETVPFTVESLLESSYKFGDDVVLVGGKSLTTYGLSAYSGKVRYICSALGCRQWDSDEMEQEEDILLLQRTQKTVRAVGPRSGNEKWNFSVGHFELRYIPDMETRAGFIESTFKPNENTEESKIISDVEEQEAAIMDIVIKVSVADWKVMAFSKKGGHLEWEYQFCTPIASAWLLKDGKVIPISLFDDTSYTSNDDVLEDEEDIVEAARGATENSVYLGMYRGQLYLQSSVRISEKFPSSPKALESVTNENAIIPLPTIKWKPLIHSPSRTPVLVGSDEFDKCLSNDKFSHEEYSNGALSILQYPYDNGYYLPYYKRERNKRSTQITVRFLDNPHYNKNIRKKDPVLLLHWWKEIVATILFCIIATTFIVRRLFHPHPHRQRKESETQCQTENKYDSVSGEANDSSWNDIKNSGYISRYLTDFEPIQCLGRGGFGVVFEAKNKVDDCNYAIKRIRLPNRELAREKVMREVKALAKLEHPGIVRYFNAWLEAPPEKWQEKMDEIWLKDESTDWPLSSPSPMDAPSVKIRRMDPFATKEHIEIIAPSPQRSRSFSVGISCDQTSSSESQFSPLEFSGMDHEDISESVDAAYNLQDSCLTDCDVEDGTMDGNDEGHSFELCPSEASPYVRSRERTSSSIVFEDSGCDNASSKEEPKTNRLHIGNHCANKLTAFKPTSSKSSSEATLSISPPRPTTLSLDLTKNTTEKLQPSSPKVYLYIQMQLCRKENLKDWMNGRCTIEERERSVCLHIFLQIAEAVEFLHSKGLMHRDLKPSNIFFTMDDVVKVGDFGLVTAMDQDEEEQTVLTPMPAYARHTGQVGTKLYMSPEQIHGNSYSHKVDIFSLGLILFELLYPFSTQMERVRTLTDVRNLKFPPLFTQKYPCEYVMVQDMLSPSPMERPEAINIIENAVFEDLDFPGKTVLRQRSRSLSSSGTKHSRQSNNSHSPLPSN
Experiment: PERK enzyme assay
Assay type: biochemical
Settings: 5 μM ATP; biotin-eIF2α substrate, 60 minutes; read-out: average PERK Enzyme (5 μM ATP) pIC50 (converted)
Protocol: Example 61: PERK Enzyme Assay
Compounds of the invention were assayed for PERK enzyme inhibitory activity with modifications to previously reported conditions (Axten et al. J. Med. Chem., 2012, 55, 7193-7207). Briefly, various concentrations of compounds (maximum 1% DMSO) were dispensed into 384-well plates containing GST-PERK enzyme. ATP and biotin-elF2α were added and after 60 minutes the reaction was quenched. After 2 hrs, a fluorescence plate reader was used to measure inhibition and pIC50s were calculated. The activity of compound 1 was determined at an ATP concentration=5 μM. For compounds 2-20 the PERK activity was determined at ATP concentration=500 μM ATP.

Q: For `Cn1cc(-c2ccc3cc(Cc4ccccc4)ncc3c2)c2c(N)ncnc21` [Example 1, 5-(3-Benzylisoquinolin-7-yl)-7-methyl-7H-pyrrolo[2,3-d]pyrimidin-4-amine], which IC50 is on record?
A: 15.8 nM

Same assay, conditions: 500 μM ATP; biotin-eIF2α substrate, 60 minutes; read-out: average PERK Enzyme (500 μM ATP) pIC50 (converted)

Q: Which IC50 does the source give for `Nc1ncnn2ccc(-c3ccc4cc(Cc5cc(F)cc(F)c5)ncc4c3F)c12` [Example 58, 5-(3-(3,5-difluorobenzyl)-8-fluoroisoquinolin-7-yl)pyrrolo[2,1-f][1,2,4]triazin-4-amine] here?
A: > 3980 nM

Q: For `Cc1nc(N)c2c(-c3ccc4cc(Cc5cc(F)cc(F)c5)ncc4c3F)cn(C)c2n1` [Example 25, 5-(3-(3,5-difluorobenzyl)-8-fluoroisoquinolin-7-yl)-2,7-dimethyl-7H-pyrrolo[2,3-d]pyrimidin-4-amine], which IC50 is on record?
A: > 3980 nM

Q: With `CCn1cc(-c2ccc3cc(Cc4cc(F)cc(F)c4)ncc3c2F)c2c(N)ncnc21` [Example 6, 5-(3-(3,5-difluorobenzyl)-8-fluoroisoquinolin-7-yl)-7-ethyl-7H-pyrrolo[2,3-d]pyrimidin-4-amine] as the molecule, how does the IC50 read?
A: 158 nM

Q: With `Nc1ncnc2c1c(-c1ccc3cc(Cc4cncc(F)c4)ncc3c1F)cn2C1CC1` [Example 53, 7-cyclopropyl-5-(8-fluoro-3-((5-fluoropyridin-3-yl)methyl)isoquinolin-7-yl)-7H-pyrrolo[2,3-d]pyrimidin-4-amine] as the molecule, how does the IC50 read?
A: 631 nM

Q: Which IC50 does the source give for `Cn1cc(-c2ccc3cc(Cc4cccc(C(F)(F)F)c4)ncc3c2F)c2c(N)ncnc21` [Example 19, 5-(8-fluoro-3-(3-(trifluoromethyl)benzyl)isoquinolin-7-yl)-7-methyl-7H-pyrrolo[2,3-d]pyrimidin-4-amine] here?
A: > 3980 nM

Q: With `Nc1ncnc2c1c(-c1ccc3cc(Cc4cc(C(F)(F)F)ccc4F)ncc3c1F)cn2C1CC1` [Example 41, 7-cyclopropyl-5-(8-fluoro-3-(2-fluoro-5-(trifluoromethyl)benzyl)isoquinolin-7-yl)-7H-pyrrolo[2,3-d]pyrimidin-4-amine] as the molecule, how does the IC50 read?
A: 100 nM

Q: With `CN(C)CCn1cc(-c2ccc3cc(Cc4cc(F)cc(F)c4)ncc3c2F)c2c(N)ncnc21` [Example 47, 5-(3-(3,5-difluorobenzyl)-8-fluoroisoquinolin-7-yl)-7-(2-(dimethylamino)ethyl)-7H-pyrrolo[2,3-d]pyrimidin-4-amine] as the molecule, how does the IC50 read?
A: 1580 nM

Q: Which IC50 does the source give for `Nc1ncnc2c1c(-c1ccc3cc(Cc4cc(F)cc(F)c4)ncc3c1F)nn2C1CC1` [Example 29, 1-cyclopropyl-3-(3-(3,5-difluorobenzyl)-8-fluoroisoquinolin-7-yl)-1H-pyrazolo[3,4-d]pyrimidin-4-amine] here?
A: > 3980 nM

Q: With `Cn1cc(-c2ccc3cc(Cc4cc(F)cc(F)c4)ncc3c2F)c2c(N)ncnc21` [Example 4, 5-(3-(3,5-Difluorobenzyl)-8-fluoroisoquinolin-7-yl)-7-methyl-7H-pyrrolo[2,3-d]pyrimidin-4-amine] as the molecule, how does the IC50 read?
A: 251 nM

Q: Which IC50 does the source give for `Nc1ncnc2c1c(-c1ccc3cc(Cc4cc(F)cc(F)c4)ncc3c1F)cn2CC(F)(F)F` [Example 23, 5-(3-(3,5-difluorobenzyl)-8-fluoroisoquinolin-7-yl)-7-(2,2,2-trifluoroethyl)-7H-pyrrolo[2,3-d]pyrimidin-4-amine] here?
A: > 3980 nM

Q: For `Cc1nc(N)c2c(-c3ccc4cc(Cc5cc(F)cc(F)c5)ncc4c3F)cn(C3CC3)c2n1` [Example 28, 7-cyclopropyl-5-(3-(3,5-difluorobenzyl)-8-fluoroisoquinolin-7-yl)-2-methyl-7H-pyrrolo[2,3-d]pyrimidin-4-amine], which IC50 is on record?
A: 2510 nM

Q: Which IC50 does the source give for `Cc1ccccc1Cc1cc2ccc(-c3cn(C4CC4)c4ncnc(N)c34)c(F)c2cn1` [Example 38, 7-cyclopropyl-5-(8-fluoro-3-(2-methylbenzyl)isoquinolin-7-yl)-7H-pyrrolo[2,3-d]pyrimidin-4-amine] here?
A: 12.6 nM

Q: For `Cn1cc(-c2ccc3cc(Cc4cc(F)cc(C(F)(F)F)c4)ncc3c2F)c2c(N)ncnc21` [Example 18, 5-(8-fluoro-3-(3-fluoro-5-(trifluoromethyl)benzyl)isoquinolin-7-yl)-7-methyl-7H-pyrrolo[2,3-d]pyrimidin-4-amine], which IC50 is on record?
A: > 3980 nM

Q: For `Cn1cc(-c2ccc3cc(Cc4cc(F)ccc4F)ncc3c2F)c2c(N)ncnc21` [Example 17, 5-(3-(2,5-difluorobenzyl)-8-fluoroisoquinolin-7-yl)-7-methyl-7H-pyrrolo[2,3-d]pyrimidin-4-amine], which IC50 is on record?
A: 1000 nM

Q: For `Nc1ncnc2c1c(-c1ccc3cc(Cc4cccc(Cl)c4F)ncc3c1F)cn2C1CC1` [Example 51, 5-(3-(3-chloro-2-fluorobenzyl)-8-fluoroisoquinolin-7-yl)-7-cyclopropyl-7H-pyrrolo[2,3-d]pyrimidin-4-amine], which IC50 is on record?
A: 3.16 nM

Q: Which IC50 does the source give for `Cc1cc(C)cc(C(=O)c2cc3ccc(-c4cn(C)c5ncnc(N)c45)cc3cn2)c1` [Example 15, (7-(4-amino-7-methyl-7H-pyrrolo[2,3-d]pyrimidin-5-yl)isoquinolin-3-yl)(3,5-dimethylphenyl)methanone] here?
A: > 3980 nM

Test system: prion infected mice
Experiment: not given
Settings: cited from earlier work

Q: For `Cn1cc(-c2ccc3c(c2)CCN3C(=O)Cc2cccc(C(F)(F)F)c2)c2c(N)ncnc21` [GSK2606414, 7-methyl-5-(1-{[3-(trifluoromethyl)phenyl]acetyl}-2,3-dihydro-1H-indol-5-yl)-7H-pyrrolo[2,3-d]pyrimidin-4-amine], which “neuroprotective effect and clinical signs of disease” value is on record?
A: provide a neuroprotective effect and prevent clinical signs of disease
